Source: ChEMBL document CHEMBL5346952, “Dimer Peptide Ligands of Vascular Endothelial Growth Factor: Optimizing Linker Length for High Affinity and Antiangiogenic Activity” (J Med Chem, 2023)
Starred links: 1 amine or outer side, 2 acyl side, 3 side chain; linkers in the order of their positions; H or OH if unused. Positions of bridges follow the written chain, without caps; N, C: chain ends. Residues, ends and D or L forms follow the SMILES beside them. Chains are numbered I, II in the order given. CO(CH2)2(OCH2CH2)17CO = O=C(CCOCCOCCOCCOCCOCCOCCOCCOCCOCCOCCOCCOCCOCCOCCOCCOCCOCCC(=O)[*:2])[*:1]; CO(CH2CH2O)9CH2CH2CO = O=C(CCOCCOCCOCCOCCOCCOCCOCCOCCOCCC(=O)[*:2])[*:1]

Experiments:
[1] = molecular target: T1, Vascular endothelial growth factor A, long form (Homo sapiens, UniProt P15692); experiment: Binding affinity to human VEGF (13 to 107 residues) expressed in Escherichia coli Rosetta (DE3) cells assessed as dissociation constant at 37 degreeC by isothermal titration calorimetry analysis
T1 sequence (P15692 whole entry): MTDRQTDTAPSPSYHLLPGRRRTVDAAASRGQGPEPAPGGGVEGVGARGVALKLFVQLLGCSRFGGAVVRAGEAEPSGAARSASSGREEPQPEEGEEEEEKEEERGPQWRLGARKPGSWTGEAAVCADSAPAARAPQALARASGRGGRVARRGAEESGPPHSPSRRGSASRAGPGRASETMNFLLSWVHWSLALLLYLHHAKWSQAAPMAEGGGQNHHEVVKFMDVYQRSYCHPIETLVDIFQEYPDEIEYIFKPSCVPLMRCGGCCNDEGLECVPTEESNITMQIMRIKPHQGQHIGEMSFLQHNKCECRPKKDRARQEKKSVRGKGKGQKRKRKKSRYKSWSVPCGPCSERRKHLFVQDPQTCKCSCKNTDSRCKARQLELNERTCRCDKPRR

[2] = molecular target: T1, Vascular endothelial growth factor A, long form; experiment: Binding affinity to human VEGF (13 to 107 residues) expressed in Escherichia coli Rosetta (DE3) cells assessed as dissociation constant at 20 degreeC by isothermal titration calorimetry analysis
[3] = molecular target: T2, Vascular endothelial growth factor A, long form (Homo sapiens) (UniProt P15692); experiment: Binding affinity to human VEGF (13 to 107 residues) expressed in Escherichia coli Rosetta (DE3) cells assessed as change in enthalpy at 37 degreeC by isothermal titration calorimetry analysis
T2 sequence (whole entry): T1 sequence (P15692 whole entry)

[4] = molecular target: T2, Vascular endothelial growth factor A, long form (Homo sapiens); experiment: Binding affinity to human VEGF (13 to 107 residues) expressed in Escherichia coli Rosetta (DE3) cells assessed as change in enthalpy at 20 degreeC by isothermal titration calorimetry analysis
[5] = molecular target: T2, Vascular endothelial growth factor A, long form (Homo sapiens); experiment: Binding affinity to human VEGF (13 to 107 residues) expressed in Escherichia coli Rosetta (DE3) cells assessed as Gibbs free energy change at 37 degreeC by isothermal titration calorimetry analysis
[6] = molecular target: T2, Vascular endothelial growth factor A, long form (Homo sapiens); experiment: Binding affinity to human VEGF (13 to 107 residues) expressed in Escherichia coli Rosetta (DE3) cells assessed as change in heat capacity at 20 degreeC by isothermal titration calorimetry analysis
[7] = molecular target: T2, Vascular endothelial growth factor A, long form (Homo sapiens); experiment: Binding affinity to human VEGF (13 to 107 residues) expressed in Escherichia coli Rosetta (DE3) cells assessed as change in entropy at 37 degreeC by isothermal titration calorimetry analysis
[8] = molecular target: T2, Vascular endothelial growth factor A, long form (Homo sapiens); experiment: Binding affinity to human VEGF (13 to 107 residues) expressed in Escherichia coli Rosetta (DE3) cells assessed as change in entropy at 20 degreeC by isothermal titration calorimetry analysis
[9] = molecular target: T2, Vascular endothelial growth factor A, long form (Homo sapiens); experiment: Binding affinity to human VEGF (13 to 107 residues) expressed in Escherichia coli Rosetta (DE3) cells assessed as Gibbs free energy change at 20 degreeC by isothermal titration calorimetry analysis

Row | Kd [1] | Kd [2] | deltaH [3] | deltaH [4] | deltaG [5] | DeltaCp [6] | -TdeltaS [7] | -TdeltaS [8] | deltaG [9] | SMILES
1 | 573 nM | 129 nM |  |  |  |  |  |  |  | CC[C@H](C)[C@@H]1NC(=O)[C@H](CC(=O)O)NC(=O)[C@@H](NC(C)=O)CSSC[C@@H]2NC(=O)[C@H](CCCCNC(=O)C[C@@H](C(=O)N[C@@H](CC(C)C)C(N)=O)NC(=O)[C@H](CCC(=O)O)NC(=O)[C@H](Cc3ccccc3)NC2=O)NC(=O)[C@H](Cc2c[nH]c3ccccc23)NC(=O)[C@H](CCC(=O)O)NC(=O)[C@H](Cc2c[nH]c3ccccc23)NC(=O)[C@H](CCCCN)NC(=O)[C@H](C(C)C)NC(=O)[C@H](Cc2cnc[nH]2)NC1=O (Ac-CDIHVKWEWKCFEDL-NH2; disulfide 1-11; lactam 10-14)
2 | 51 nM | 22 nM | -48.3 kcal/mol | -38.1 kcal/mol | -10.4 kcal/mol | -0.6 kcal/mol/K | 37.9 kcal/mol | 27.9 kcal/mol | -10.3 kcal/mol | CC[C@H](C)[C@@H]1NC(=O)[C@H](CC(=O)O)NC(=O)[C@@H](NC(C)=O)CSSC[C@@H]2NC(=O)[C@H](CCCCNC(=O)C[C@@H](C(=O)N[C@@H](CC(C)C)C(N)=O)NC(=O)[C@H](CCC(=O)O)NC(=O)[C@H](Cc3ccccc3)NC2=O)NC(=O)[C@H](Cc2c[nH]c3ccccc23)NC(=O)[C@H](CCC(=O)O)NC(=O)[C@H](Cc2c[nH]c3ccccc23)NC(=O)[C@H](CCCCNC(=O)CCOCCOCCOCCOCCOCCOCCOCCOCCOCCOCCOCCOCCOCCOCCOCCOCCOCCC(=O)NCCCC[C@@H]2NC(=O)[C@H](C(C)C)NC(=O)[C@H](Cc3cnc[nH]3)NC(=O)[C@H]([C@@H](C)CC)NC(=O)[C@H](CC(=O)O)NC(=O)[C@@H](NC(C)=O)CSSC[C@@H]3NC(=O)[C@H](CCCCNC(=O)C[C@@H](C(=O)N[C@@H](CC(C)C)C(N)=O)NC(=O)[C@H](CCC(=O)O)NC(=O)[C@H](Cc4ccccc4)NC3=O)NC(=O)[C@H](Cc3c[nH]c4ccccc34)NC(=O)[C@H](CCC(=O)O)NC(=O)[C@H](Cc3c[nH]c4ccccc34)NC2=O)NC(=O)[C@H](C(C)C)NC(=O)[C@H](Cc2cnc[nH]2)NC1=O (I: Ac-CDIHVKWEWKCFEDL-NH2 / II: Ac-CDIHVKWEWKCFEDL-NH2; disulfide I:1-I:11, II:1-II:11; linker I:6-II:6 via CO(CH2)2(OCH2CH2)17CO; lactam I:10-I:14, II:10-II:14)
3 | 90 nM | 26 nM | -42.1 kcal/mol | -32.8 kcal/mol | -10 kcal/mol | -0.55 kcal/mol/K | 32.1 kcal/mol | 22.6 kcal/mol | -10.2 kcal/mol | CC[C@H](C)[C@@H]1NC(=O)[C@H](CC(=O)O)NC(=O)[C@@H](NC(C)=O)CSSC[C@@H]2NC(=O)[C@H](CCCCNC(=O)C[C@@H](C(=O)N[C@@H](CC(C)C)C(N)=O)NC(=O)[C@H](CCC(=O)O)NC(=O)[C@H](Cc3ccccc3)NC2=O)NC(=O)[C@H](Cc2c[nH]c3ccccc23)NC(=O)[C@H](CCC(=O)O)NC(=O)[C@H](Cc2c[nH]c3ccccc23)NC(=O)[C@H](CCCCNC(=O)CCOCCOCCOCCOCCOCCOCCOCCOCCOCCC(=O)NCCCC[C@@H]2NC(=O)[C@H](C(C)C)NC(=O)[C@H](Cc3cnc[nH]3)NC(=O)[C@H]([C@@H](C)CC)NC(=O)[C@H](CC(=O)O)NC(=O)[C@@H](NC(C)=O)CSSC[C@@H]3NC(=O)[C@H](CCCCNC(=O)C[C@@H](C(=O)N[C@@H](CC(C)C)C(N)=O)NC(=O)[C@H](CCC(=O)O)NC(=O)[C@H](Cc4ccccc4)NC3=O)NC(=O)[C@H](Cc3c[nH]c4ccccc34)NC(=O)[C@H](CCC(=O)O)NC(=O)[C@H](Cc3c[nH]c4ccccc34)NC2=O)NC(=O)[C@H](C(C)C)NC(=O)[C@H](Cc2cnc[nH]2)NC1=O (I: Ac-CDIHVKWEWKCFEDL-NH2 / II: Ac-CDIHVKWEWKCFEDL-NH2; disulfide I:1-I:11, II:1-II:11; linker I:6-II:6 via CO(CH2CH2O)9CH2CH2CO; lactam I:10-I:14, II:10-II:14)
4 |  |  |  | -29.3 kcal/mol |  |  |  | 17 kcal/mol | -12.3 kcal/mol | COc1ccc([C@H]2CNC(=O)C2)cc1OC1CCCC1 [S-ROLIPRAM]
